Patent US20200199647A1, “ASSAY FOR SCREENING MODULATORS OF HOLOPHOSPHATASE ACTIVITY” (UNITED KINGDOM RESEARCH AND INNOVATION, priority 2017, published 2020)
Blank lines part the entries; values can stand above or below the compound they belong to.

Experiments:
R15A [1] = target: T1, R15A (Homo sapiens, UniProt O75807); assay: Light scattering to monitor aggregation of R15A; settings: 5 μM R15A, 10 min, 20° C.
T1 construct: PPP1R15A amino acids 325-636 (R15A); His6 (C); made in house; host or cells: E. coli BL21 pLysS
Procedure: Samples were incubated for 10 min at RT. […] Therefore, light scattering was measured at 380 nm emission, 380 nm absorption to monitor the presence of aggregates. For each sample, 100 data points were collected over a period of 10 min, at 20° C., with constant stirring.

R15B = target: T2, R15B (Homo sapiens, UniProt Q5SWA1); assay: Limited trypsin proteolysis of R15B (conformational change); settings: 100 μM compound, 0.5 μM R15B, 2.5 nM trypsin, 30 min to 3 h, 22° C.
T2 construct: PPP1R15B amino acids 340-698 (R15B); His6 (C); made in house; host or cells: E. coli BL21 pLysS
T2 sequence (Q5SWA1 340-698): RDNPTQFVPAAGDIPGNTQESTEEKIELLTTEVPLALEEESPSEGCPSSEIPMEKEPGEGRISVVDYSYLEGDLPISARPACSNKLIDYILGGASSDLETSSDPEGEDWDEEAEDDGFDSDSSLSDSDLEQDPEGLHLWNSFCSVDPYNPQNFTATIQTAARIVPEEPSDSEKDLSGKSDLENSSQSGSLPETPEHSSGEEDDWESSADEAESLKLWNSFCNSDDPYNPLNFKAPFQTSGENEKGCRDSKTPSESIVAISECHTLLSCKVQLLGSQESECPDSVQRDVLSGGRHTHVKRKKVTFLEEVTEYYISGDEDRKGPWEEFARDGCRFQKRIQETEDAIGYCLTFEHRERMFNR
Procedure: (§1) Reactions were allowed to proceed at 22° C. with shaking at 350 rpm. At time points 30 min, 1 h, 2 h or 3 h, 30 μl of sample was removed from the mix and digestion was stopped by addition of 10 μl of 16% SDS Laemmli sample buffer. Samples were run on 4-12% NuPAGE Bis-Tris gels (Life Technologies). Proteins were visualised by staining with InstantBlue Coomassie Protein Stain (Expedeon) protein stain.
(§2) Purified R15A and R15B were diluted to 3 μM in PBS, and incubated for 15′ at RT with 100 μM Raphin1, or DMSO vehicle. Reactions were initiated by addition of 5 nM of trypsin from bovine pancreas (Sigma), made up in PBS, and allowed to proceed for 5′ at 22° C., with shaking at 350 rpm. Digestion was stopped by addition of 4× Laemmli sample buffer and samples were run on 4-12% NuPAGE Bis-Tris gels (Life Technologies). Proteins were visualised by staining with InstantBlue Protein Stain.

R15A-PP1c = target: T3, R15A-PP1c (Homo sapiens, UniProt O75807); assay: In vitro dephosphorylation of P-eIF2α by recombinant R15A-PP1c holophosphatase (10 nM PP1c); assay type: biochemical; settings: PP1c 10 nM, 1 μM P-eIF2α, compounds 100 μM, 30° C., 16 h
T3 construct: PPP1R15A amino acids 325-636 (R15A); His6 (C); made in house; host or cells: E. coli BL21 pLysS (R15A, eIF2α); E. coli BL21/pGro7 (PP1c)
Procedure: (§3) PP1c was diluted to the appropriate concentration (as indicated in the figure legends) in dephosphorylation buffer immediately prior to use. Dephosphorylation reactions were carried out by pre-incubating diluted PP1c in the presence or absence of regulatory subunits (either […]), and/or compounds (all at 100 μM, except for Salubrinal which was used at 30 μM), for 15′ at RT. All compounds were diluted in DMSO, and DMSO vehicle was used in all control experiments.
(§4) The reaction was initiated by the addition of 1 μM P-eIF2α or ^33P Phosphorylase a substrates and then incubated at 30° C. for 16 h with shaking at 350 rpm. Reactions were stopped by addition of 4× Laemmli sample buffer. eIF2α samples were analyzed by immunoblotting or Phos-tag gels. […] Samples in FIG. 8 and FIG. 16 were run on a 15% SuperSep Phos-tag acrylamide gel (Alpha Laboratories) and visualized by staining with InstantBlue Protein Stain.

HeLa cells = assay: Cytoprotection of HeLa cells from Tunicamycin (ER) stress; assay type: cell-based; settings: 250 ng/ml Tunicamycin, 72 h
Procedure: HeLa cells (40,000 cells/ml) were plated in a 96-well plate and treated with different concentrations of compound, as indicated, or DMSO vehicle in the presence of 250 ng/ml Tunicamycin for 72 h. To monitor cell death, 1/2000 dilution of the CellTox green dye (Promega) was added to the media. The growth of the cells was monitored over time and pictures taken every 2 h with the IncuCyte ZOOM system and analysed by the IncuCyte ZOOM software (Essen BioScience). To compare different compounds and their cytoprotective effect, a growth ratio for each time point was calculated:
Growth ratio=(Phase confluency (%) at X hours)/(Phase confluency (%) at 0 hours)
The end point of the assay (72 h) was chosen for generating the graphs.

R15B-PP1c = target: T4, R15B-PP1c (Homo sapiens, UniProt Q5SWA1); assay: In vitro dephosphorylation of P-eIF2α by recombinant R15B-PP1c holophosphatase (10 nM PP1c); assay type: biochemical; settings: PP1c 10 nM, 1 μM P-eIF2α, compounds 100 μM, 30° C., 16 h
T4 construct: PPP1R15B amino acids 340-698 (R15B); His6 (C); made in house; host or cells: E. coli BL21 pLysS (R15B, eIF2α); E. coli BL21/pGro7 (PP1c)
Procedure: as §3
The reaction was initiated by the addition of 1 μM P-eIF2α or ^33P Phosphorylase a substrates and then incubated at 30° C. for 16 h with shaking at 350 rpm. Reactions were stopped by addition of 4× Laemmli sample buffer. eIF2α samples were analyzed by immunoblotting or Phos-tag gels. P-eIF2α dephosphorylation was analysed by immunoblotting using anti-Phospho-eIF2α (SerS1) (#9721) (Cell Signaling) and anti-eIF2α (ab26197) (AbCam) antibodies. Samples in FIG. 8 and FIG. 16 were run on a 15% SuperSep Phos-tag acrylamide gel (Alpha Laboratories) and visualized by staining with InstantBlue Protein Stain.

R15A [2] = target: T1, R15A; assay: Limited trypsin proteolysis of R15A (conformational change); settings: 100 μM compound, 0.5 μM R15A, 2.5 nM trypsin, 30 min to 3 h, 22° C.
Procedure: as §1, §2

PP1c = target: T5, PP1c (Homo sapiens, UniProt P62136); assay: Dephosphorylation of P-eIF2α by increasing amounts of PP1c alone; assay type: biochemical; settings: compound 100 μM, 30° C., 16 h
T5 construct: The cDNA encoding amino acids 7-330 of human PP1cα; made in house; host or cells: E. coli BL21/pGro7 (PP1c); E. coli BL21 pLysS (eIF2α)
Procedure: as §3, §4

eIF2α = assay: Thermophoresis affinity measurement, binding to labelled P-eIF2α; parameters: species or system human
Procedure: Thermophoresis experiments were performed using a Monolith NT.115 instrument (NanoTemper Technologies). PP1c and P-eIF2α proteins were labeled using the Monolith NT Protein labelling Kit Red-NHS and stored for no longer than a month at −80° C. For thermophoresis, all protein dilutions were carried out in MST buffer (50 mM HEPES (pH 7.4), 100 mM NaCl, 0.1% Tween20, 2 mM MnCl2). Labelled proteins (100 nM) were mixed with equal volumes of serial dilutions of the unlabelled binding partner. In holophosphatase binding experiments, labelled P-eIF2 was diluted to 100 nM in MST buffer containing 10 μM regulatory subunit and then mixed as above with titrations of unlabelled PP1c. All experiments were carried out in enhanced grade capillaries, using 100% LED power and 100% IR-laser (on for 25 seconds (″)) at 20° C. NanoTemper Analysis 1.2.101 software was used to fit the data with a nonlinear solution of the law of mass action and KD values were determined. Each measurement was repeated in three independent experiments and KD values were averaged. Standard error of the mean (SEM) values are shown.

T1 sequence (O75807 325-636, stated change not applied): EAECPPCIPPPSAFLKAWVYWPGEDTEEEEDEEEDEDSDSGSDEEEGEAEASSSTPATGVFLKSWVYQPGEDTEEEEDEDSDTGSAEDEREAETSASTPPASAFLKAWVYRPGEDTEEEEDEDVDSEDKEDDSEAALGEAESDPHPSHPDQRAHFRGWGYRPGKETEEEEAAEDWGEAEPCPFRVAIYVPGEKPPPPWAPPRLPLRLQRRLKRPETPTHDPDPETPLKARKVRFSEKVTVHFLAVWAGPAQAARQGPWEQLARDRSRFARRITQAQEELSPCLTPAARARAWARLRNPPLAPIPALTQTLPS
T3 sequence (O75807 325-636, stated change not applied): as above
T3 sequence (P62136 7-330 partner): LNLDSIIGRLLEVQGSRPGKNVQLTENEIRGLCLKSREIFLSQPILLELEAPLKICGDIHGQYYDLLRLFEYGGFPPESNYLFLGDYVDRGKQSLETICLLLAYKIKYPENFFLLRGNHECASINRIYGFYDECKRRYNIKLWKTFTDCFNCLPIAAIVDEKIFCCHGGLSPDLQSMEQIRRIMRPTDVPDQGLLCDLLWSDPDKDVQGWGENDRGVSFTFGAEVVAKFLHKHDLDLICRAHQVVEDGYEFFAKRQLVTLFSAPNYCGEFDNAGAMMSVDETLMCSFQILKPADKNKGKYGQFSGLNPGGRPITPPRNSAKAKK
T4 sequence (P62136 7-330 partner limits assumed, one chain of several): as the sequence (P62136 7-330 partner) above
T5 sequence (P62136 7-330): as the sequence (P62136 7-330 partner) above

aggregation of R15A (light scattering at 380 nm) (R15A [1]; 1 mM compound): No aggregation | sensitivity of R15B to trypsin proteolysis (R15B): did not alter the protease sensitivity | inhibition of R15A-PP1c eIF2α holophosphatase (R15A-PP1c): did not inhibit R15A-PP1 or R15B-PP1 | inhibition of R15B-PP1c eIF2α holophosphatase (R15B-PP1c): did not inhibit R15A-PP1 or R15B-PP1 | sensitivity of R15A to trypsin proteolysis (R15A [2]): did not alter the protease sensitivity
Compound: N=C(N)N/N=C/c1ncccc1Cl [C3, (E)-2-((3-chloropyridin-2-yl)methylene)hydrazine-1-carboximidamide]
cytoprotection from ER stress (HeLa cells): inactive

aggregation of R15A (light scattering at 380 nm) (R15A [1]; 50 μM compound): induced robust aggregation | inhibition of PP1c alone (PP1c): inhibited PP1c
Compound: O=C(/C=C/c1ccccc1)NC(NC(=S)Nc1cccc2cccnc12)C(Cl)(Cl)Cl (stereo not shown) [Salubrinal]

Kd (eIF2α; 20° C.): ~650 nM
Compound: PP1c^D95A: catalytically inactive D95A mutant of human PP1cα (amino acids 7-330)

affinity for eIF2α relative to isolated PP1c^D95A (eIF2α; 10 μM regulatory subunit): 3.0 times higher
Compound: R15B-PP1c^D95A: holophosphatase complex of R15B (PPP1R15B 340-698) with PP1c^D95A
